Counter-ions that a name gives are not always drawn.
Columns and labels:
[1] = system: HB4a erbB-2 cells; assay: cell proliferation assay, HB4a cells transformed by over-expression of c-erbB-2; assay type: cell-based; conditions: Homo sapiens, 96 h, low serum, 4 days at 37° C., methylene blue, 0.5% DMSO
Experimental: (§1) Compounds of the present invention were tested for protein tyrosine kinase inhibitory activity in a substrate phosphorylation assay and a cell proliferation assay. The cell proliferation assay uses an immortalised human breast epithelial cell line (HB4a) which has been transformed by over-expression of c-erbB-2. Growth of these cells in low serum is dependent upon the c-erbB-2 tyrosine kinase activity. The specificity of the effect of the test compounds on tyrosine kinase dependent growth over general toxicity is assessed by comparison to an HB4a cell line which has been transfected with ras. Cells are plated at 3000/well in 96-well plates in 0.1 ml medium and allowed to attach overnight. test compound is added in 0.1 ml medium, with a final concentration of 0.5% DMSO, and the plates incubated for 4 days at 37° C. The cells are then examined microscopically for evidence of morphological detransformation and cell mass is estimated by staining with methylene blue and measuring the absorbance at 620 nm. The results are shown in the second and third columns of Table 1 below as the IC50 values in nM.

[2] = biological target: T1, c-erbB-2 (Homo sapiens, UniProt P04626); assay: c-erbB-2 substrate phosphorylation assay (33P-labelled γ-phosphate from ATP onto PolyGluAlaTyr); assay type: biochemical; conditions: 1 hour, room temperature, 100 μM ATP, 10 mM MnCl2, pH 7.4, 2% DMSO; recombinant intracellular domain of c-erbB-2
T1 construct: recombinant construct of the intracellular domain of c-erbB-2 that is constitutively active; made in house
T1 sequence (P04626 676-1255 limits assumed): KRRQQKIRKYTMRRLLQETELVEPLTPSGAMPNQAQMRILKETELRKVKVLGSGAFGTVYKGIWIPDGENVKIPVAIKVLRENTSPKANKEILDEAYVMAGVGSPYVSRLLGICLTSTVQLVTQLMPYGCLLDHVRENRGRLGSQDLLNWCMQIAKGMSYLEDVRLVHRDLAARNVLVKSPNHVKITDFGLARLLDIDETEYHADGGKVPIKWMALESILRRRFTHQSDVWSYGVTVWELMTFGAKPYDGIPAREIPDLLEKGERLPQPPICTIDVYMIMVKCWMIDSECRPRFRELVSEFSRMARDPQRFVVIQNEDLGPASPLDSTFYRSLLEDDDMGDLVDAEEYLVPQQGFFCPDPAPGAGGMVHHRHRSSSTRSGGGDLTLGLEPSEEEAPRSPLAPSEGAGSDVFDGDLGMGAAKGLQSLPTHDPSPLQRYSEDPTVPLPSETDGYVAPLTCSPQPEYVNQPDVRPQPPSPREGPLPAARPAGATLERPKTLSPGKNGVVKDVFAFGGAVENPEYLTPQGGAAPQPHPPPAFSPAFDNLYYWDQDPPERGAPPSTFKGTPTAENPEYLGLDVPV
Experimental: Compounds of the present invention were tested for protein tyrosine kinase inhibitory activity in a substrate phosphorylation assay and a cell proliferation assay. The substrate phosphorylation assay uses a baculovirus expressed, recombinant construct of the intracellular domain of c-erbB-2 that is constitutively active. […] The reaction is stopped by the addition of EDTA (final concentration 0.1M) and the peptide is then precipitated onto ion exchange filter paper and the incorporated radioactivity determined. The results are shown in the first column of Table 1 below as the IC50 values in nM.

[3] = system: HB4a ras cells; assay: cell proliferation assay, HB4a cells transfected with ras; assay type: cell-based; conditions: Homo sapiens, 96 h, 4 days at 37° C., methylene blue, 0.5% DMSO, control for general toxicity
Experimental: as §1

[4] = system: EGF receptor tyrosine kinase; conditions: Fry et al (Science, 265, 1093 (1994)); cited from earlier work
[5] = system: other tyrosine kinases; conditions: Fry et al (Science, 265, 1093 (1994)); cited from earlier work
[6] = stated without data, in contrast to the compounds of the invention; cited from earlier work

Row | SMILES | IC50 [2] | IC50 [1] | IC50 [3] | inhibition of the EGF receptor tyrosine kinase [4] | inhibition of other tyrosine kinases [5] | in vivo activity [6]
1 | O=S(=O)(c1ccccc1)c1ccc(Nc2ncnc3cnc(Cl)cc23)cc1 [Example 14, 6-Chloro-4-(4-phenylsulphonylanilino)pyrido[3,4-d]pyrimidine hydochloride] | 900 nM | 15000 nM | 50000 nM | – | – | –
2 | c1ccc(COc2ccc(Nc3ncnc4ccsc34)cc2)cc1 [Example 23, 4-(4-Benzyloxyanilino)thieno[3,2-d]pyrimidine hydrochloride] | 300 nM | 2000 nM | 5000 nM | – | – | –
3 | FC(F)(Oc1ccc(Nc2ncnc3ccsc23)cc1)c1ccccc1 [Example 30, 4-(4-(a,a-Difluorobenzyloxy)anilino)thieno[3,2-d]pyrimidine hydrochloride] | 860 nM | 6000 nM | 15000 nM | – | – | –
4 | Fc1ccccc1COc1ccc(Nc2ncnc3ccsc23)cc1Cl [Example 25, 4-[3-Chloro-4-(2-fluorobenzyloxy)anilino]thieno[3,2-d]pyrimidine hydrochloride] | 150 nM | 500 nM | 3000 nM | – | – | –
5 | Cc1csc2ncnc(Nc3ccc(OCC4CCCCC4)cc3)c12 [Example 36, 4-(4-Cyclohexylmethoxyanilino)-5-methylthieno[2,3-d]pyrimidine hydrochloride] | 500 nM | 10000 nM | 10000 nM | – | – | –
6 | CN(C)CCN(C)c1cc2c(Nc3ccc(S(=O)(=O)c4ccccc4)cc3)ncnc2cn1 [Example 17, 6-[N-Methyl-N-(2-dimethylaminoethyl)amino]-4-(4-phenylsulphonylanilino)-pyrido[3,4-d]pyrimidine] | 200 nM | 4400 nM | 10000 nM | – | – | –
7 | c1ccc(Oc2ccc(Nc3ncnc4scc(-c5cccs5)c34)cc2)cc1 [Example 38, 4-(4-Phenoxyanilino)-5-(2-thienyl)thieno[2,3-d]pyrimidine hydrochloride] | 490 nM | 20000 nM | 20000 nM | – | – | –
8 | Cc1csc2ncnc(Nc3ccc(Oc4ccccc4)cc3)c12 [Example 37, 5-Methyl4-(4-phenoxyanilino)thieno[2,3-d]pyrimidine hydrochloride] | 650 nM | 17000 nM | 25000 nM | – | – | –
9 | c1ccc(Cc2ccc(Nc3ncnc4ccsc34)cc2)cc1 [Example 28, 4-(4-Benzylanilino)thieno[3,2-d]pyrimidine hydrochloride] | 200 nM | 3000 nM | 13000 nM | – | – | –
10 | Clc1cc(Nc2ncnc3ccsc23)ccc1OCc1ccccc1Br [Example 26, 4-[4-(2-Bromobenzyloxy)-3-chloroanilino]thieno[3,2-d]pyrimidine hydrochloride] | 230 nM | 2500 nM | 30000 nM | – | – | –
11 | COc1cc2ncnc(Nc3cccc(Br)c3)c2cc1OC | – | – | – | picomolar concentrations | micromolar or higher concentrations | does not however exhibit good in vivo activity
12 | O=S1(=O)CCN(c2cc3c(Nc4ccc(OCc5ccccc5)cc4)ncnc3cn2)CC1 [Example 11, 4-(4-Benzyloxyanilino)-6-(thiomorpholine-1,1-dioxide-4-yl)-pyrido[3,4-d]pyrimidine] | 920 nM | 10000 nM | 37000 nM | – | – | –

More lines, in order of falling IC50 [2], values ahead:

Row | IC50 [2] | SMILES | IC50 [1] | IC50 [3] | inhibition of the EGF receptor tyrosine kinase [4] | inhibition of other tyrosine kinases [5] | in vivo activity [6]
13 | 124 nM | Cn1nccc1-c1cc2c(Nc3ccc(OCc4ccccc4)cc3)ncnc2cn1 [Example 4, 4-(4-Benzyloxyanilino)-6-(N-methylpyrazol-2-yl)pyrido[3,4-d]pyrimidine] | 2500 nM | 11000 nM | – | – | –
14 | 115 nM | Cn1ccnc1-c1cc2c(Nc3ccc(OCc4ccccc4)cc3)ncnc2cn1 [Example 3, 4-(4-Benzyloxyanilino)-6-(N-methylimidazol-2-yl)pyrido[3,4-d]pyrimidine] | 11000 nM | 44000 nM | – | – | –
15 | 110 nM | c1ccc(Oc2ccc(Nc3ncnc4ccsc34)cc2)cc1 [Example 29, 4-(4-Phenoxyanilino)thieno[3,2-d]pyrimidine hydrochloride] | 5000 nM | 20000 nM | – | – | –
16 | 99 nM | Cc1csc2ncnc(Nc3ccc(OCc4ccccc4F)c(Cl)c3)c12 [Example 35, 4-[3-Chloro-4-(2-fluorobenzyloxy)anilino]-5-methylthieno[2,3-d]pyrimidine hydrochloride] | 8000 nM | 25000 nM | – | – | –
17 | 58 nM | Clc1cc2c(Nc3ccc(OCc4ccccc4)cc3)ncnc2cn1 [Example 1, 4-(4-Benzyloxyanilino)-6-chloropyrido[3,4-]pyrimidine hydrochloride] | 2700 nM | 17000 nM | – | – | –
18 | 50 nM | CN1CCN(c2cc3c(Nc4ccc(S(=O)(=O)c5ccccc5)cc4)ncnc3cn2)CC1 [Example 16, 6-(1-Methylpiperazin-4-yl)-4-(4-phenylsulphonylanilino)-pyrido[3,4-d]pyrimidine] | 2400 nM | 6600 nM | – | – | –
19 | 50 nM | COc1ccccc1COc1ccc(Nc2ncnc3ccsc23)cc1Cl [Example 24, 4-[3-Chloro-4-(2-methoxybenzyloxy)anilino]thieno[3,2-d]pyrimidine hydrochloride] | 10000 nM | 18000 nM | – | – | –
20 | 30 nM | CN(C)c1cc2c(Nc3ccc(S(=O)(=O)c4ccccc4)cc3)ncnc2cn1 [Example 15, 6-(N,N-Dimethylamino)-4-(4-phenylsulphonylanilino)pyrido[3,4-d]pyrimidine] | 570 nM | 32000 nM | – | – | –
21 | 26 nM | Cn1cncc1-c1cc2c(Nc3ccc(OCc4ccccc4)cc3)ncnc2cn1 [Example 2, 4-(4-Benzyloxyanilino)-6-(N-methylimidazol-5-yl)pyrido[3,4-d]pyrimidine] | 690 nM | 3700 nM | – | – | –
22 | 24 nM | CN(C)c1cc2c(Nc3ccc(Oc4ccccc4)cc3)ncnc2cn1 [Example 12, 6-N,N-Dimethylamino-4-(4-phenoxyanilino)pyrido[3,4-d]pyrimidine] | 1600 nM | 31000 nM | – | – | –
23 | 20 nM | CN1CCN(c2cc3c(Nc4ccc(OCc5ccccc5)cc4)ncnc3cn2)CC1 [Example 8, 4-(4-Benzyloxyanilino)-6-(1-methylpiperazin-4-yl)-pyrido[3,4-d]pyrimidine] | 590 nM | 7500 nM | – | – | –
24 | 14 nM | c1ccc(COc2ccc(Nc3ncnc4cnc(-c5ccco5)cc34)cc2)cc1 [Example 5, 4-(4-Benzyloxyanilino)-6-(furan-2-yl)pyrido[3,4-d]pyrimidine] | 500 nM | 11000 nM | – | – | –
25 | 10 nM | CN(C)c1cc2c(Nc3ccc(OCC4OCCO4)cc3)ncnc2cn1 [Example 20, 6-(N,N-Dimethylamino)-4-[4-(1,3-dioxolan-2-yl)methoxyanilino]pyrido[3,4-d]pyrimidine] | 2400 nM | 46000 nM | – | – | –
26 | 5 nM | CN(CCO)c1cc2c(Nc3ccc(S(=O)(=O)c4ccccc4)cc3)ncnc2cn1 [Example 18, 6-[N-Methyl-N-(2-hydroxyethyl)amino]-4-(4-phenylsulphonylanilino)pyrido[3,4-d]pyrimidine] | 150 nM | 28000 nM | – | – | –
27 | 1.3 nM | CN(C)c1cc2c(Nc3ccc(OCc4ccccc4)cc3)ncnc2cn1 [Example 7, 4-(4-Benzyloxyanilino)-6-(N,N-dimethylamino)pyrido[3,4-d]pyrimidine] | 300 nM | > 50000 nM | – | – | –
